Assay results published in ChEMBL document CHEMBL3734721 (J Med Chem, 2015).
In brackets after ≈: the same amount, converted by molar mass.

Assays:
[1] = biological target: Beta-1 adrenergic receptor (Homo sapiens, UniProt P08588); assay: Antagonist activity at human beta1 receptor expressed in CHO-K1 cells assessed as isoproterenol-induced cAMP level by HTRF assay; type: functional, cell-based
[2] = Chemical stability of compound in DMSO assessed as compound remaining at 10 mg/ml after 2 days at room temperature; type: physicochemical; details: read-out: Stability
[3] = Chemical stability of compound in DMSO assessed as compound remaining at 10 mg/ml after 24 days at room temperature under air; type: physicochemical; details: read-out: Stability
[4] = Chemical stability of compound in 0.1N NaOH assessed as compound remaining at 10 mg/ml after 1 day; type: physicochemical; details: read-out: Stability
[5] = Chemical stability of compound in buffer at pH 7.4 assessed as compound remaining at 10 mg/ml after 2 days; type: physicochemical; details: read-out: Stability
[6] = Chemical stability of compound in DMSO assessed as compound remaining at 10 mg/ml after 1 day at room temperature; type: physicochemical; details: read-out: Stability
[7] = biological target: 5-hydroxytryptamine receptor 1B (Homo sapiens, UniProt P28222); assay: Antagonist activity at human 5-HT1B receptor expressed in CHO-K1 cells assessed as seretonin-induced cAMP level by HTRF assay; type: functional, cell-based
[8] = biological target: T1, 5-hydroxytryptamine receptor 2A (Homo sapiens, UniProt P28223); assay: Antagonist activity at human 5-HT2A receptor expressed in CHO-K1 cells assessed as seretonin-induced calcium level by FDSS assay; type: functional, cell-based
[9] = biological target: T2, 5-hydroxytryptamine receptor 2B (Homo sapiens, UniProt P41595); assay: Antagonist activity at human 5-HT2B receptor expressed in CHO-K1 cells assessed as seretonin-induced calcium level by FDSS assay; type: functional, cell-based
[10] = biological target: 5-hydroxytryptamine receptor 6 (Homo sapiens, UniProt P50406); assay: Antagonist activity at human 5-HT6 receptor expressed in 1321N1 cells assessed as seretonin-induced cAMP by HTRF assay; type: functional, cell-based
[11] = biological target: 5-hydroxytryptamine receptor 7 (Homo sapiens, UniProt P34969); assay: Antagonist activity at human wild-type 5-HT7 receptor expressed in HEK cells assessed as seretonin-induced cAMP by HTRF assay; type: functional, cell-based, HEK293
[12] = biological target: T3, Adenosine receptor A2a (Homo sapiens, UniProt P29274); assay: Antagonist activity at human wild-type A2A receptor expressed in CHO-K1 cells assessed as NECA-induced cAMP by HTRF assay; type: functional, cell-based
[13] = biological target: T4, Adenosine receptor A3 (Homo sapiens, UniProt P0DMS8); assay: Antagonist activity at human wild-type A3 receptor expressed in CHO-K1 cells assessed as IB MECA-induced cAMP by HTRF assay; type: functional, cell-based
T4 sequence (P0DMS8 whole entry): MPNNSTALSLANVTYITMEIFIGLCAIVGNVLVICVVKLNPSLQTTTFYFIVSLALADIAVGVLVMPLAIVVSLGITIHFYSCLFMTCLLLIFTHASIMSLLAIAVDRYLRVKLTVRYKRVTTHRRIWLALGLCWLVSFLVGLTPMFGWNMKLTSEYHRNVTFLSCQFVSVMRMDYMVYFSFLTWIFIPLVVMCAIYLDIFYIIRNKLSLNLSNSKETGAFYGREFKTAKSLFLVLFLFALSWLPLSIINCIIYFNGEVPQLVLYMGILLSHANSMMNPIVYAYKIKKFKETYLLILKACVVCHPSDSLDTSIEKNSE

[14] = biological target: T5, Type-1 angiotensin II receptor (Homo sapiens, UniProt P30556); assay: Antagonist activity at human wild-type AGTR1 receptor expressed in CHO-K1 cells assessed as angiotensin-2-induced calcium by FDSS assay; type: functional, cell-based
T5 sequence (P30556 whole entry): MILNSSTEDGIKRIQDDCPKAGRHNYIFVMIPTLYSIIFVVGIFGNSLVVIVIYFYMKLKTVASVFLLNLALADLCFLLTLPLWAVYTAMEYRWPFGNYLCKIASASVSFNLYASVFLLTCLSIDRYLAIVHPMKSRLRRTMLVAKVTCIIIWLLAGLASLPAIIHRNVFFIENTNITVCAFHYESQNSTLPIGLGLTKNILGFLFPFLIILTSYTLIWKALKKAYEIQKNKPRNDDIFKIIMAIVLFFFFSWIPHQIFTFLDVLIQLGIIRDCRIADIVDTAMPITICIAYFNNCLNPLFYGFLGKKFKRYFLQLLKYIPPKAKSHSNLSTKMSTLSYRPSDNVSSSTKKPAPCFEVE

[15] = biological target: T1, 5-hydroxytryptamine receptor 2A; assay: Agonist activity at human 5-HT2A receptor expressed in CHO-K1 cells assessed as calcium level by FDSS assay; type: functional, cell-based
[16] = biological target: T2, 5-hydroxytryptamine receptor 2B; assay: Agonist activity at human 5-HT2B receptor expressed in CHO-K1 cells assessed as calcium level by FDSS assay; type: functional, cell-based
[17] = biological target: T3, Adenosine receptor A2a; assay: Agonist activity at human wild-type A2A receptor expressed in CHO-K1 cells assessed as cAMP level by HTRF assay; type: functional, cell-based
[18] = biological target: Vasopressin V1a receptor (Homo sapiens, UniProt P37288); assay: Agonist activity at human wild-type AVPR1A receptor expressed in CHO-K1 cells assessed as calcium level by FDSS assay; type: functional, cell-based
[19] = biological target: T6, Cholecystokinin receptor type A (Homo sapiens, UniProt P32238); assay: Agonist activity at human wild-type CCKA receptor expressed in CHO-K1 cells assessed as calcium level by FDSS assay; type: functional, cell-based
T6 sequence (P32238 whole entry): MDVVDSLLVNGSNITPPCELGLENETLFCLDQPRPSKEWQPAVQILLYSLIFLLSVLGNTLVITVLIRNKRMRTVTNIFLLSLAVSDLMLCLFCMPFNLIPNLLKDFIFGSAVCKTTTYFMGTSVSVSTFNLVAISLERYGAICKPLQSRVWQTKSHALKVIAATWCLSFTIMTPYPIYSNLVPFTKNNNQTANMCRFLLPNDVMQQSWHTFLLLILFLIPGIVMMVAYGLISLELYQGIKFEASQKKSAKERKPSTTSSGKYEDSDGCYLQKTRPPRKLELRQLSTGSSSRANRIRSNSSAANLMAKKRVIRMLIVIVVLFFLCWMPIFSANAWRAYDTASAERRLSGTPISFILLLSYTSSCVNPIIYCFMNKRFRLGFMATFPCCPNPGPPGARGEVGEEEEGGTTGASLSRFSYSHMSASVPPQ

[20] = biological target: D(2) dopamine receptor (Homo sapiens, UniProt P14416); assay: Agonist activity at human wild-type D2 receptor expressed in CHO-K1 cells assessed as cAMP level by HTRF assay; type: functional, cell-based
[21] = Log D of compound at pH 7.4 by chromotography; type: physicochemical; details: buffer
[22] = Kinetic solubility of compound in phosphate buffer at pH 7.4 for 4 hrs by UPLC/UV analysis; type: physicochemical; details: read-out: Kinetic_solubility
[23] = Intrinsic clearance in rat liver microsomes at 1 uM by HPLC/MS/MS analysis; type: ADME; details: read-out: CLH
[24] = biological target: Cytochrome P450 3A4 (Homo sapiens, UniProt P08684); assay: Inhibition of human CYP3A4 by LC-MS analysis; type: ADME
[25] = biological target: Cytochrome P450 2D6 (Homo sapiens, UniProt P10635); assay: Inhibition of human CYP2D6 by LC-MS analysis; type: ADME
[26] = Fraction unbound in rat plasma at 5 uM after 4.5 hrs by LC-MS/MS analysis; type: ADME, cell-free

T3 sequence (P29274 whole entry): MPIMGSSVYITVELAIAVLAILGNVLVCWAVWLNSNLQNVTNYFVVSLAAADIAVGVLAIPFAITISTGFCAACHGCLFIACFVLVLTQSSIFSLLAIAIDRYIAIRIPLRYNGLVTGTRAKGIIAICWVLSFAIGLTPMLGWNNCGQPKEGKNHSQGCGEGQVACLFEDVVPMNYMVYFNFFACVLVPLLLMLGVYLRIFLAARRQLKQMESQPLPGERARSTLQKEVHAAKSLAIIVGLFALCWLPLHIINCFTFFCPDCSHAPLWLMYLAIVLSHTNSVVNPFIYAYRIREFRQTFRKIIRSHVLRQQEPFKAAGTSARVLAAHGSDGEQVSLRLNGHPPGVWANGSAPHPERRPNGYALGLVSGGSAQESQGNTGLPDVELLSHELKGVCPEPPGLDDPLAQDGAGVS
T2 sequence (P41595 whole entry): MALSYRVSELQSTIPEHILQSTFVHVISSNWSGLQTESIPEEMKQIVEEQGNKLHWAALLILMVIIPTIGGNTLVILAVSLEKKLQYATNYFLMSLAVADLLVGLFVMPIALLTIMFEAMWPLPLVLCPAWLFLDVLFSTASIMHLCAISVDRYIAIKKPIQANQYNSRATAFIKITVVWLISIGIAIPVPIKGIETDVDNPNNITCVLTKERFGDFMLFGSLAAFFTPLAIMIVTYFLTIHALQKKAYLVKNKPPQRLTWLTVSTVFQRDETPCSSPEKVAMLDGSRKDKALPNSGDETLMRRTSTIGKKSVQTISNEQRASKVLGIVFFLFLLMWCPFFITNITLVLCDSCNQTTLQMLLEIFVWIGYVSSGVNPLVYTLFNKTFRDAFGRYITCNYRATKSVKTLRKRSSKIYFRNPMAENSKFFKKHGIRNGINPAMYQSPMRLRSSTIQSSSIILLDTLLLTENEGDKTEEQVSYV
T1 sequence (P28223 whole entry): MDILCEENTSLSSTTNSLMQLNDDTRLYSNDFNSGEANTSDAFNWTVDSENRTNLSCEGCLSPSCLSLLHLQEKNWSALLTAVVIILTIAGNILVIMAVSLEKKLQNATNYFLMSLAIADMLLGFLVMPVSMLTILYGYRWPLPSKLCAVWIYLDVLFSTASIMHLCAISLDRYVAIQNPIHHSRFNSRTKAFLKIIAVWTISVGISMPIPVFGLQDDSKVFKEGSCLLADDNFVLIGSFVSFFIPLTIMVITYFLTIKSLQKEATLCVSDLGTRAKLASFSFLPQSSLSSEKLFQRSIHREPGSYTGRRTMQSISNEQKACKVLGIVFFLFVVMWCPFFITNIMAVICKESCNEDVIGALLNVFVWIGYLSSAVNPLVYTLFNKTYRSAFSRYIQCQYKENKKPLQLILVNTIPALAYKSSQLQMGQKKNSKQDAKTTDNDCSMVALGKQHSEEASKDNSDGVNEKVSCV
Sequence of 5-hydroxytryptamine receptor 6 (P50406 whole entry): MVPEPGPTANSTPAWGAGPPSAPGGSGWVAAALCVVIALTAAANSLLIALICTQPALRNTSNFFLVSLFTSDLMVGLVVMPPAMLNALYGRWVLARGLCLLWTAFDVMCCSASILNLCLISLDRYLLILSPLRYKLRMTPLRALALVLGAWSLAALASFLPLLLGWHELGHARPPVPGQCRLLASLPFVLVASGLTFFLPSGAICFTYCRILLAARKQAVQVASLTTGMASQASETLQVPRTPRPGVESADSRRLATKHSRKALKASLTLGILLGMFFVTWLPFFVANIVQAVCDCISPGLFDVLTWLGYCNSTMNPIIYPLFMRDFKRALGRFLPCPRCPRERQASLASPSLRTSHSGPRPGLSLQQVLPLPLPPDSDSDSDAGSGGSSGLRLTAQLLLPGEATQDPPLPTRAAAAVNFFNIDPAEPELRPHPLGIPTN
Sequence of Cytochrome P450 3A4 (P08684 whole entry): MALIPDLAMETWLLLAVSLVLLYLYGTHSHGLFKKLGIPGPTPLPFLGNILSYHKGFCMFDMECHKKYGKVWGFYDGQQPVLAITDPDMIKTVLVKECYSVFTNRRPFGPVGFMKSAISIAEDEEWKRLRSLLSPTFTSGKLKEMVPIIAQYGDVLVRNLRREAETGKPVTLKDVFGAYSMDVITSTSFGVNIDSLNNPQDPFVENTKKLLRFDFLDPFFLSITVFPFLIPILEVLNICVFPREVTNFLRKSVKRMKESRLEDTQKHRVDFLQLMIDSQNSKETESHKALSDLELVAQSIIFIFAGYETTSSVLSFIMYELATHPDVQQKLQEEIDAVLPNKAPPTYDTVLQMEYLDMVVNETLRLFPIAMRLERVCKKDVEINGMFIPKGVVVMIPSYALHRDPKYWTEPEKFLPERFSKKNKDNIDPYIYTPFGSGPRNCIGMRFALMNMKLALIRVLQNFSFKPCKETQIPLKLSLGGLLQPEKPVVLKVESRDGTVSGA
Sequence of 5-hydroxytryptamine receptor 7 (P34969 whole entry): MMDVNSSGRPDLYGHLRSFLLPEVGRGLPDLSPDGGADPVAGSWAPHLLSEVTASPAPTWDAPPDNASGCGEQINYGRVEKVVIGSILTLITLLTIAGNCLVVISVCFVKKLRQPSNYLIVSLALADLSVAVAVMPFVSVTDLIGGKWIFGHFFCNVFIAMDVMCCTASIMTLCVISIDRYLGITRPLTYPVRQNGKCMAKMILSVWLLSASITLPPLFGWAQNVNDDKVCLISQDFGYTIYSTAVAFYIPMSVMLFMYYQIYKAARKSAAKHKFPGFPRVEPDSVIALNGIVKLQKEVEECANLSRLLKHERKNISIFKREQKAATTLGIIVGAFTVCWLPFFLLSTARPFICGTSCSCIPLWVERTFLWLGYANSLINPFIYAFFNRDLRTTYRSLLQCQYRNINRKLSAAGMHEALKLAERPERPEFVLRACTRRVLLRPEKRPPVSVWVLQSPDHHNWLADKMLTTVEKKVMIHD
Sequence of 5-hydroxytryptamine receptor 1B (P28222 whole entry): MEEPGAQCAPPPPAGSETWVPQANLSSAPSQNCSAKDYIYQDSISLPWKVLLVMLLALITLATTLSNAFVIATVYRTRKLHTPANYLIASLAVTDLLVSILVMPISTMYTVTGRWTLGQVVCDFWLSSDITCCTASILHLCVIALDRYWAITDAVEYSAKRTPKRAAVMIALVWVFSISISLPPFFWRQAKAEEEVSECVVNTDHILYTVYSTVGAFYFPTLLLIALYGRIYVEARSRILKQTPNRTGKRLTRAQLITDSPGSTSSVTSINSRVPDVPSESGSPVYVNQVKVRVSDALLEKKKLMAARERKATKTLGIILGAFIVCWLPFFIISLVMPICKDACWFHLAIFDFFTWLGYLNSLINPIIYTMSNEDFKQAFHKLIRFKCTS
Sequence of Beta-1 adrenergic receptor (P08588 whole entry): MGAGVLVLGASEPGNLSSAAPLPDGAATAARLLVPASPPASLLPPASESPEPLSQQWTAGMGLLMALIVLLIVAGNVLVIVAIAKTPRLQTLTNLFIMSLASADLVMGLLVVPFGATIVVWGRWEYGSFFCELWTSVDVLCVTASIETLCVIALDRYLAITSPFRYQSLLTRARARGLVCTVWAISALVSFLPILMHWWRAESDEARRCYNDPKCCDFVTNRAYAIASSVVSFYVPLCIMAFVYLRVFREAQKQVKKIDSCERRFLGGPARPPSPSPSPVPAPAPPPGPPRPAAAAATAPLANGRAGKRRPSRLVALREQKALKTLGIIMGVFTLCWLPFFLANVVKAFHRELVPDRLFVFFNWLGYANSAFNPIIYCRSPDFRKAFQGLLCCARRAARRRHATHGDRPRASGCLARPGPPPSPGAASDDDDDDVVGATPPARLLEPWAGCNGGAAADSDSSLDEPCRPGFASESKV
Sequence of Cytochrome P450 2D6 (P10635 whole entry): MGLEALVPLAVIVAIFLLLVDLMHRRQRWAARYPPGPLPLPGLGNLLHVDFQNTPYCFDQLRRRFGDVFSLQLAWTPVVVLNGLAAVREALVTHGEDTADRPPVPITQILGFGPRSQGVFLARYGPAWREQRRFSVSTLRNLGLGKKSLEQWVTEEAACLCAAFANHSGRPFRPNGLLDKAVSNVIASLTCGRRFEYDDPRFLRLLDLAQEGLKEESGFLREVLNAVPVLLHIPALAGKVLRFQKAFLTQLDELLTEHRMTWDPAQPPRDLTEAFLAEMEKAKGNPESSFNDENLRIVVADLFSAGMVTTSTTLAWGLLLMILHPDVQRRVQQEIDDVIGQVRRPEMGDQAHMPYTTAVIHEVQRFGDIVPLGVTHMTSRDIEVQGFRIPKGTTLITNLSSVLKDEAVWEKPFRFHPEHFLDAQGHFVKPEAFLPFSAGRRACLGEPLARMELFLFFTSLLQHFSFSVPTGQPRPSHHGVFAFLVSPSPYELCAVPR
Sequence of D(2) dopamine receptor (P14416 whole entry): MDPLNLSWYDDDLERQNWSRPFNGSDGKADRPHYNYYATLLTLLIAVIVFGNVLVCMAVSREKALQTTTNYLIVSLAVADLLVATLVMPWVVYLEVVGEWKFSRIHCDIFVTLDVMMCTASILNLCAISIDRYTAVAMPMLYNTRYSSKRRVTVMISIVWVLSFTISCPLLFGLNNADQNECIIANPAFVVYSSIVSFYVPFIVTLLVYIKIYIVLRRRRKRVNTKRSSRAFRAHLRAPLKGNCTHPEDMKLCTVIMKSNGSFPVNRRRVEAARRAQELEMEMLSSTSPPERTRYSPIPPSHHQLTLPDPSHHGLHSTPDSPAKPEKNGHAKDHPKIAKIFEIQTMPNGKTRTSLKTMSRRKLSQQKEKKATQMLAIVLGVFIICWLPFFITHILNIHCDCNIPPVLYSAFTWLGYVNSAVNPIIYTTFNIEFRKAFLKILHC

SMILES	IC50 [1] [nM]	remaining at 48 h, 10 mg/ml [2] [%]	remaining at 576 h, 10 mg/ml [3] [%]	remaining at 24 h, 10 mg/ml [4] [%]	remaining at 48 h, 10 mg/ml [5] [%]	remaining at 24 h, 10 mg/ml [6] [%]	IC50 [7] [µM]	IC50 [8] [µM]	IC50 [9] [µM]	IC50 [10] [µM]	IC50 [11] [µM]	IC50 [12] [µM]	IC50 [13] [µM]	IC50 [14] [µM]	EC50 [15] [µM]	EC50 [16] [µM]	EC50 [17] [µM]	EC50 [18] [µM]	EC50 [19] [µM]	EC50 [20] [µM]	other results
CB1C=Cc2cccc(OCC(O)CNC(C)C)c2N1 (configuration not stated)	631	96	98	88	91	96	> 5.01	> 5.01	> 5.01	> 5.01	> 5.01	> 5.01	> 5.01	> 5.01	> 5.01	> 5.01	> 5.01	> 5.01	> 5.01	> 5.01	chromatographic logD [21]: 2.31; solubility kinetic at 4 h [22]: 699 µM (≈ 192 µg/mL); microsomal CLint at 1 µM [23]: 289 µL/min/mg; IC50 [24]: > 10 µM; IC50 [25]: 398 nM; fraction unbound at 4.5 h, 5 µM [26]: 0.096
CB1C=Cc2c(cccc2OCC(O)CN(C)C)N1 (configuration not stated)	200	96	97	89	96	97	> 5.01	> 5.01	> 5.01	> 5.01	> 5.01	> 5.01	> 5.01	> 5.01	> 5.01	> 5.01	> 5.01	> 5.01	> 5.01	> 5.01	chromatographic logD [21]: 1.81; solubility kinetic at 4 h [22]: 647 µM (≈ 168 µg/mL); microsomal CLint at 1 µM [23]: > 346 µL/min/mg; IC50 [24]: > 10 µM; IC50 [25]: 2510 nM; fraction unbound at 4.5 h, 5 µM [26]: 0.29
